These results are taken from ChEMBL document CHEMBL5331099, “Chemical scaffold recycling: Structure-guided conversion of an HIV integrase inhibitor into a potent influenza virus RNA-dependent RNA polymerase inhibitor designed to minimize resistance potential” (Eur J Med Chem, 2023).

The term Kd denotes the constant that tells how readily two partners part at equilibrium.

The nature of this test: Binding affinity to Influenza A virus PA endonuclease I39T mutant assessed as dissociation constant by MST assay.
With `O=C1c2c(O)c(=O)ccn2N([C@@H]2c3ccccc3SCc3c2ccc(F)c3F)C2COCCN12` (stereo partly drawn), the Kd came out at 9300 nM. As for `COc1cnccc1CCNC(=O)c1nc(-c2ccccc2C(F)(F)F)[nH]c(=O)c1O`, the Kd is 32 nM. Consider `Nc1ncnc2c1ncn2CCNC(=O)c1nc(-c2ccccc2C(F)(F)F)[nH]c(=O)c1O`, for which the Kd was 16 nM.
